Paper PMC3104040 (Bioorganic & medicinal chemistry, 2011)

Experiments:
[1] = tested on: cowpox virus (Brighton); assay: organism not typed; type: cell-based; details: HFF, read-out: EC50 in cells infected with cowpox or vaccinia virus
[2] = tested on: ECTV-Moscow strain; assay: organism not typed; type: cell-based, Ectromelia
[3] = tested on: Vaccinia virus (Copenhagen); assay: microbe, parasite or virus in culture; type: cell-based; details: Orthopoxvirus vaccinia, HFF, read-out: Vaccinia EC50

SMILES: CC(C)CCCCCCCCCCCOCCCOP(=O)(O)CO[C@H](CO)Cn1ccc(N)nc1=O [Compound 12M-TRDP-CDV, 12-methyl-tridecyloxypropyl-cidofovir]
- EC50 [1]: 800 to 1000 nM

SMILES: C=CCCCCCCCCCCCCCCOCCOP(=O)(O)CO[C@H](CO)Cn1cnc2c(N)ncnc21 [HDNE-(S)-HPMPA, ω-hexadecenyloxyethyl-(S)-HPMPA]
- Ectromelia S.I. (selective index) [2]: 7
- EC50 ([2]; BSC-1, read-out: antiviral activity (EC50), virus not specified): 300 to 740 nM

SMILES: CCCCCCCCCCCCCCCCOCCCOP(=O)(O)CO[C@H](CO)Cn1cnc2c(N)ncnc21 [HDP-(S)-HPMPA, hexadecyloxypropyl-(S)-HPMPA]
- % intact compound, human liver S9: 92-93%

SMILES: CCCCCCCCCCCCCCCCOCCCOP(=O)(O)CO[C@H](CO)Cn1ccc(N)nc1=O [HDP-CDV, hexadecyloxypropyl-cidofovir]
- EC50 [3]: 80 ± 30 nM

SMILES: CCCCCCCCCCCCCCCCCCOC[C@@H](COP(=O)(O)CO[C@H](CO)Cn1ccc(N)nc1=O)OCc1ccccc1 [ODBG-CDV, 1-O-octadecyl-2-O-benzyl-sn-glyceryl-3-cidofovir]
- % compound remaining, Human S9 (s9, 1.5 h): 91-92%
